Calls of active or inactive are those of the source. No cut-off for these calls is given here.
Assays:
P388 [1] = experiment: Antitumor activity against mouse P388 cells allografted in BDF1 mouse assessed as mouse survival at 100 mg/kg administered 24 hrs post challenge relative to control; format: functional, organism-based; set-up: dose 100 mg/kg
P388 [2] = experiment: Antitumor activity against mouse P388 cells allografted in BDF1 mouse assessed as mouse survival at 50 mg/kg administered 24 hrs post challenge relative to control; format: functional, organism-based; set-up: dose 50 mg/kg
P388 [3] = experiment: Antitumor activity against mouse P388 cells allografted in BDF1 mouse assessed as mouse survival at 25 mg/kg administered 24 hrs post challenge relative to control; format: functional, organism-based; set-up: dose 25 mg/kg
P388 [4] = experiment: Antitumor activity against mouse P388 cells allografted in BDF1 mouse assessed as increase in survival time at 100 mg/kg administered 24 hrs post challenge relative to control; format: functional
P388 [5] = experiment: Antitumor activity against mouse P388 cells allografted in BDF1 mouse assessed as increase in survival time at 50 mg/kg administered 24 hrs post challenge relative to control; format: functional
P388 [6] = experiment: Antitumor activity against mouse P388 cells allografted in BDF1 mouse assessed as increase in survival time at 25 mg/kg administered 24 hrs post challenge relative to control; format: functional
Mus musculus [7] = experiment: Toxicity in mouse P388 cells allografted BDF1 mouse assessed as body weight difference at 100 mg/kg administered 24 hrs post challenge relative to control; format: organism-based; set-up: dose 100 mg/kg; conditions: in vivo
Mus musculus [8] = experiment: Toxicity in mouse P388 cells allografted BDF1 mouse assessed as body weight difference at 50 mg/kg administered 24 hrs post challenge relative to control; format: organism-based; set-up: dose 50 mg/kg; conditions: in vivo
Mus musculus [9] = experiment: Toxicity in mouse P388 cells allografted BDF1 mouse assessed as body weight difference at 25 mg/kg administered 24 hrs post challenge relative to control; format: organism-based; set-up: dose 25 mg/kg; conditions: in vivo
P388 [10] = experiment: Antitumor activity against mouse P388 cells allografted in BDF1 mouse assessed as mouse survival at 32 mg/kg administered 24 hrs post challenge relative to control; format: functional, organism-based; set-up: dose 32 mg/kg
P388 [11] = experiment: Antitumor activity against mouse P388 cells allografted in BDF1 mouse assessed as mouse survival at 16 mg/kg administered 24 hrs post challenge relative to control; format: functional, organism-based; set-up: dose 16 mg/kg
P388 [12] = experiment: Antitumor activity against mouse P388 cells allografted in BDF1 mouse assessed as mouse survival at 8 mg/kg administered 24 hrs post challenge relative to control; format: functional, organism-based; set-up: dose 8 mg/kg
P388 [13] = experiment: Antitumor activity against mouse P388 cells allografted in BDF1 mouse assessed as mouse survival at 4 mg/kg administered 24 hrs post challenge relative to control; format: functional, organism-based; set-up: dose 4 mg/kg
P388 [14] = experiment: Antitumor activity against mouse P388 cells allografted in BDF1 mouse assessed as increase in survival time at 32 mg/kg administered 24 hrs post challenge relative to control; format: functional
P388 [15] = experiment: Antitumor activity against mouse P388 cells allografted in BDF1 mouse assessed as increase in survival time at 16 mg/kg administered 24 hrs post challenge relative to control; format: functional
P388 [16] = experiment: Antitumor activity against mouse P388 cells allografted in BDF1 mouse assessed as increase in survival time at 8 mg/kg administered 24 hrs post challenge relative to control; format: functional
P388 [17] = experiment: Antitumor activity against mouse P388 cells allografted in BDF1 mouse assessed as increase in survival time at 4 mg/kg administered 24 hrs post challenge relative to control; format: functional
Mus musculus [18] = experiment: Toxicity in mouse P388 cells allografted BDF1 mouse assessed as body weight difference at 32 mg/kg administered 24 hrs post challenge relative to control; format: organism-based; set-up: dose 32 mg/kg; conditions: in vivo
Mus musculus [19] = experiment: Toxicity in mouse P388 cells allografted BDF1 mouse assessed as body weight difference at 16 mg/kg administered 24 hrs post challenge relative to control; format: organism-based; set-up: dose 16 mg/kg; conditions: in vivo
Mus musculus [20] = experiment: Toxicity in mouse P388 cells allografted BDF1 mouse assessed as body weight difference at 8 mg/kg administered 24 hrs post challenge relative to control; format: organism-based; set-up: dose 8 mg/kg; conditions: in vivo
Mus musculus [21] = experiment: Toxicity in mouse P388 cells allografted BDF1 mouse assessed as body weight difference at 4 mg/kg administered 24 hrs post challenge relative to control; format: organism-based; set-up: dose 4 mg/kg; conditions: in vivo
L1210 [22] = experiment: Antitumor activity against mouse L1210 cells allografted in BDF1 mouse assessed as increase in survival time at 25 mg/kg administered 24 hrs post challenge relative to control; format: functional
L1210 [23] = experiment: Antitumor activity against mouse L1210 cells allografted in BDF1 mouse assessed as increase in survival time at 12.5 mg/kg administered 24 hrs post challenge relative to control; format: functional
L1210 [24] = experiment: Antitumor activity against mouse L1210 cells allografted in BDF1 mouse assessed as increase in survival time at 6.25 mg/kg administered 24 hrs post challenge relative to control; format: functional
P388 [25] = experiment: Antitumor activity against mouse P388 cells allografted in BDF1 mouse assessed as mouse survival at 12.5 mg/kg administered 24 hrs post challenge relative to control; format: functional, organism-based; set-up: dose 12.5 mg/kg
P388 [26] = experiment: Antitumor activity against mouse P388 cells allografted in BDF1 mouse assessed as mouse survival at 6.25 mg/kg administered 24 hrs post challenge relative to control; format: functional, organism-based; set-up: dose 6.25 mg/kg
P388 [27] = experiment: Antitumor activity against mouse P388 cells allografted in BDF1 mouse assessed as increase in survival time at 12.5 mg/kg administered 24 hrs post challenge relative to control; format: functional
P388 [28] = experiment: Antitumor activity against mouse P388 cells allografted in BDF1 mouse assessed as increase in survival time at 6.25 mg/kg administered 24 hrs post challenge relative to control; format: functional
Mus musculus [29] = experiment: Toxicity in mouse P388 cells allografted BDF1 mouse assessed as body weight difference at 12.5 mg/kg administered 24 hrs post challenge relative to control; format: organism-based; set-up: dose 12.5 mg/kg; conditions: in vivo
Mus musculus [30] = experiment: Toxicity in mouse P388 cells allografted BDF1 mouse assessed as body weight difference at 6.25 mg/kg administered 24 hrs post challenge relative to control; format: organism-based; set-up: dose 6.25 mg/kg; conditions: in vivo

Row | SMILES | Activity (P388 [1]) | Activity (P388 [2]) | Activity (P388 [3]) | T/C (P388 [4]) | T/C (P388 [5]) | T/C (P388 [6]) | Activity (Mus musculus [7]) | Activity (Mus musculus [8]) | Activity (Mus musculus [9]) | other results
1 | O=C1c2ccccc2C(=O)c2c(NCCN3CCCCC3)ccc(NCCN3CCCCC3)c21 | Active | Active | Active | 128% | 110% | 104% | -4.5 g | -2.9 g | -3.6 g | 
2 | O=C1c2ccccc2C(=O)c2c(NCCNCCO)ccc(NCCNCCO)c21 [AMETANTRONE] |  |  |  |  |  |  |  |  |  | Activity (P388 [10]): Active; Activity (P388 [11]): Active; Activity (P388 [12]): Active; Activity (P388 [13]): Active; T/C (P388 [14]): 81%; T/C (P388 [15]): 275%; T/C (P388 [16]): 276%; T/C (P388 [17]): 275%; Activity (Mus musculus [18]): -5.9 g; Activity (Mus musculus [19]): -3.9 g; Activity (Mus musculus [20]): -2 g; Activity (Mus musculus [21]): 0 g; T/C (L1210 [22]): 272%; T/C (L1210 [23]): 227%; T/C (L1210 [24]): 156%
3 | O=C1c2ccccc2C(=O)c2c(NCCCCCO)ccc(NCCCCCO)c21 | Active | Active | Active | 88% | 78% | 88% | -4 g | -1.5 g | -1.4 g | 
4 | O=C1c2ccccc2C(=O)c2c3c(cc(NCCNCCO)c21)N(CCO)CCN3 |  |  | Active | 101% | 163% | 155% | -3.8 g | -3.5 g | -3.2 g | 
5 | O=C1c2ccccc2C(=O)c2c(NCCCNCCO)ccc(NCCCNCCO)c21 |  | Active |  | 98% | 133% | 130% | -2.6 g | -2.1 g | -2.1 g | Activity (P388 [25]): Active; Activity (P388 [26]): Active; T/C (P388 [27]): 117%; T/C (P388 [28]): 101%; Activity (Mus musculus [29]): -1.4 g; Activity (Mus musculus [30]): 0.9 g
6 | CNCCNc1ccc(NCCNC)c2c1C(=O)c1ccccc1C2=O |  |  |  |  |  |  |  |  |  | Activity (P388 [25]): Active; T/C (P388 [27]): 200%; Activity (Mus musculus [29]): -1.9 g
7 | O=C1c2ccccc2C(=O)c2c(NCCSCCO)ccc(NCCSCCO)c21 | Active | Active | Active | 94% | 86% | 95% | -2.2 g | -1.4 g | -1.6 g | 

From ChEMBL document CHEMBL3244338, “Antineoplastic agents. Structure-activity relationship study of bis(substituted aminoalkylamino)anthraquinones” (J Med Chem, 1978)
